Our source for the IC50 values is ChEMBL document CHEMBL5729568, “Ras inhibitors” (2023).

The nature of test [1]: (§1) Biochemical Assay: A variety of Ras proteins may be inhibited by compounds of the present invention (e.g., K-Ras, N-Ras, H-Ras, and mutants thereof at positions 12, 13 and 61, such as G12C, G12D, G12V, G12S, G13C, G13D, and Q61L, and others described herein). The purpose of this biochemical assay is to measure the ability of test compounds to covalently label nucleotide-loaded K-Ras isoforms. […] The sample is incubated at 25? C. for a time period of up to 24 hours prior to quenching by the addition of 10 uL of 5% Formic Acid. Quenched samples are centrifuged at 15000 rpm for 15 minutes in a benchtop centrifuge before injecting a 10 uL aliquot onto a reverse phase C4 column and eluting into the mass spectrometer with an increasing acetonitrile gradient in the mobile phase. Analysis of raw data may be carried out using Waters MassLynx MS software, with % bound calculated from the deconvoluted protein peaks for labeled and unlabeled K-Ras.

Test [2] is described as follows: as §1. This is another data set of the same source.
Test [3] in a line: as §1. The source holds these as a separate data set.
A short description of test [4]: as §1. This is another data set of the same source.
Test [5] is described as follows: as §1. The source holds these as a separate data set.
The nature of test [6]: as §1. The source holds these as a separate data set.
The nature of test [7]: as §1. This is another data set of the same source.

As usually defined, the IC50 is the point on the concentration scale where inhibition reaches its midpoint.

“Also recorded” adds a separate entry of the source.

`CCn1c(-c2cccnc2C(C)OC)c2c3cc(ccc31)N1CCO[C@@H](C[C@H](NC(=O)[C@H](C(C)C)N(C)C(=O)C3(F)CCN(C(=O)C#CC(C)(C)N(C)C)CC3)C(=O)N3CCC[C@H](N3)C(=O)OCC(C)(C)C2)C1` (stereo not given in full): the IC50 result was “in the range around 5.5 µM” in test [1]; “in the range around 5.5 µM” in test [2]; “in the range around 5.5 µM” in test [3]; “in the range around 5.5 µM” in test [4]; less than 0.01 µM in test [5]; “in the range around 5.5 µM” in test [6]. Moreover, the IC50 result in test [7] is “in the range around 0.55 µM”.

For `C=CC(=O)N1CC(OC[C@H](C(=O)N[C@H]2Cc3cc(F)cc(c3)-c3ccc4c(c3)c(c(-c3cccnc3C(C)OC)n4CC(F)(F)F)CC(C)(C)COC(=O)[C@@H]3CCCN(N3)C2=O)C(C)C)C1` (stereo not given in full), the IC50 entry in test [1] is “in the range around 5.5 µM”; in test [2], “in the range around 0.55 µM”; in test [3], “in the range around 5.5 µM”; in test [4], “in the range around 5.5 µM”; in test [5] it was “in the range around 0.55 µM”; in test [6] it was “in the range around 5.5 µM”. For the same molecule, in test [7], the 50% inhibitory concentration (IC50) entry was “in the range around 0.55 µM”.

Take `C=CC(=O)N1CC(OC[C@H](C(=O)N[C@H]2Cc3cc(cc(C(F)F)c3)-c3ccc4c(c3)c(c(-c3cccnc3C(C)OC)n4CC)CC(C)(C)COC(=O)[C@@H]3CCCN(N3)C2=O)C(C)C)C1` (stereo not given in full): the IC50 in test [1] is more than 10 µM; in test [2], “in the range around 5.5 µM”; in test [3] it was more than 10 µM; in test [4] it was more than 10 µM; in test [5], “in the range around 5.5 µM”; in test [6], more than 10 µM. The IC50 entry in test [7] was “in the range around 5.5 µM”.

Take `C=CC(=O)N1CCO[C@H]2CN(C(=O)N(C)[C@H](C(=O)N[C@H]3Cc4cc(C(F)F)cc(n4)-c4ccc5c(c4)c(c(-c4cccnc4C(C)OC)n5CC(F)(F)F)CC(C)(C)COC(=O)[C@@H]4CCCN(N4)C3=O)C(C)C)C[C@H]21` (stereo not given in full): the 50% inhibitory concentration (IC50) result in test [1] was “in the range around 5.5 µM”; in test [2], “in the range around 0.55 µM”; in test [3] it was “in the range around 5.5 µM”; in test [4], “in the range around 5.5 µM”; in test [5] it was “in the range around 0.55 µM”; in test [6] it was “in the range around 5.5 µM”. Further, in test [7], the IC50 entry is “in the range around 0.055 µM”.

As for `CCn1c(-c2cccnc2C(C)OC)c2c3cc(ccc31)N1CCC[C@@H](C[C@H](NC(=O)[C@@H](COC3CN(C(=O)C#CC(C)(C)N(C)C)C3)C(C)C)C(=O)N3CCC[C@H](N3)C(=O)OCC(C)(C)C2)C1` (stereo not given in full), the half-inhibitory concentration (IC50) in test [1] was more than 10 µM; in test [2], more than 10 µM; in test [3], more than 10 µM; in test [4], more than 10 µM; in test [5], “in the range around 0.055 µM”; in test [6], more than 10 µM. Further, the IC50 in test [7] was more than 10 µM.

In the case of `C=CC(=O)N1CCOC2(CCN(C(=O)N(C)[C@H](C(=O)N[C@H]3Cc4cc(CF)cc(c4)-c4ccc5c(c4)c(c(-c4cccnc4C(C)OC)n5CC(F)(F)F)CC(C)(C)COC(=O)[C@@H]4CCCN(N4)C3=O)C(C)C)CC2)C1` (stereo not given in full), the IC50 entry was “in the range around 0.55 µM” in test [1]; “in the range around 0.055 µM” in test [2]; “in the range around 0.55 µM” in test [3]; “in the range around 0.55 µM” in test [4]; “in the range around 0.55 µM” in test [5]; “in the range around 0.55 µM” in test [6]. Further, in test [7], the half-inhibitory concentration (IC50) result was “in the range around 0.055 µM”.

Take `CCn1c(-c2cccnc2C(C)OC)c2c3cc(ccc31)N1CCC[C@@H](C[C@H](NC(=O)[C@H](C(C)C)N(C)C(=O)[C@H]3CCN(C(=O)C#CC(C)(C)N4CCC4)C3)C(=O)N3CCC[C@H](N3)C(=O)OCC(C)(C)C2)C1` (stereo not given in full): the half-maximal inhibitory concentration (IC50) in test [1] is more than 10 µM; in test [2], more than 10 µM; in test [3] it was more than 10 µM; in test [4], more than 10 µM; in test [5], “in the range around 0.055 µM”; in test [6] it was more than 10 µM. The IC50 in test [7] was more than 10 µM.

For the molecule `C=CC(=O)C1CC[C@H](C(=O)C(C)[C@H](C(=O)N[C@H]2Cc3nc(cs3)-c3ccc4c(c3)c(c(-c3cccnc3C(C)OC)n4CC)CC(C)(C)COC(=O)[C@@H]3CCCN(N3)C2=O)C(C)C)C1` (stereo not given in full), the IC50 in test [1] was more than 10 µM; in test [2], “in the range around 5.5 µM”; in test [3], “in the range around 5.5 µM”; in test [4], “in the range around 5.5 µM”; in test [5], “in the range around 0.55 µM”; in test [6], more than 10 µM. The IC50 entry in test [7] is “in the range around 5.5 µM”.

Turning to `C=CC(=O)N1CC(OC[C@H](C(=O)N[C@H]2C[C@H]3CN(CCO3)c3ccc4c(c3)c(c(-c3cccnc3C(C)OC)n4CC(F)(F)F)CC(C)(C)COC(=O)[C@@H]3CCCN(N3)C2=O)C(C)C)C1` (stereo not given in full), the half-inhibitory concentration (IC50) in test [1] is more than 10 µM; in test [2], “in the range around 5.5 µM”; in test [3], “in the range around 5.5 µM”; in test [4] it was more than 10 µM; in test [5], “in the range around 0.55 µM”; in test [6] it was “in the range around 5.5 µM”. Moreover, the IC50 entry in test [7] was “in the range around 5.5 µM”.

Consider `C=CC(=O)N1CCC(F)(C(=O)N(C)[C@H](C(=O)N[C@H]2C[C@H]3CN(CCO3)c3ccc4c(c3)c(c(-c3cccnc3C(C)OC)n4CC)CC(C)(C)COC(=O)[C@@H]3CCCN(N3)C2=O)C(C)C)CC1` (stereo not given in full), for which the half-inhibitory concentration (IC50) entry in test [1] is “in the range around 5.5 µM”; in test [2] it was “in the range around 5.5 µM”; in test [3], “in the range around 5.5 µM”; in test [4], “in the range around 5.5 µM”; in test [5] it was “in the range around 0.055 µM”; in test [6], “in the range around 5.5 µM”. Further, the 50% inhibitory concentration (IC50) entry in test [7] was “in the range around 0.55 µM”.

In the case of `COC(C)c1ncccc1-c1c2c3cc(ccc3n1CC(F)(F)F)N1CCO[C@@H](C[C@H](NC(=O)[C@@H](COC3CN(C(=O)C#CC(C)(C)N(C)C)C3)C(C)C)C(=O)N3CCC[C@H](N3)C(=O)OCC(C)(C)C2)C1` (stereo not given in full), the concentration for half-maximal inhibition (IC50) is more than 10 µM in test [1]; more than 10 µM in test [2]; more than 10 µM in test [3]; more than 10 µM in test [4]; less than 0.01 µM in test [5]; “in the range around 5.5 µM” in test [6]. For the same molecule, the half-maximal inhibitory concentration (IC50) entry in test [7] is “in the range around 5.5 µM”.

As to `C=C(C)C(=O)N1CC(N(C)C(=O)N(C)[C@H](C(=O)N[C@H]2Cc3nc(cs3)-c3ccc4c(c3)c(c(-c3cccnc3[C@H](C)OC)n4CC)CC(C)(C)COC(=O)[C@@H]3CCCN(N3)C2=O)C(C)C)C1` (atropisomer, axis not shown), the 50% inhibitory concentration (IC50) entry in test [2], in test [3], in test [4], in test [6] and in test [7] was “in the range around 5.5 µM” throughout.

In the case of `COC(C)c1ncccc1-c1c2c3cc(ccc3n1CC(F)(F)F)-c1cc(F)cc(c1)C[C@H](NC(=O)[C@@H](COC1CN(C(=O)C#CC(C)(C)N(C)C)C1)C(C)C)C(=O)N1CCC[C@H](N1)C(=O)OCC(C)(C)C2` (stereo not given in full), the concentration for half-maximal inhibition (IC50) in test [1] was more than 10 µM; in test [2], “in the range around 5.5 µM”; in test [3], “in the range around 5.5 µM”; in test [4], more than 10 µM; in test [5] it was less than 0.01 µM; in test [6] it was “in the range around 5.5 µM”. Besides, the IC50 entry in test [7] is “in the range around 5.5 µM”.

With `C=CC(=O)N1CC[C@H](C(=O)N(C)[C@H](C(=O)N[C@H]2Cc3cc(sn3)-c3ccc4c(c3)c(c(-c3cccnc3[C@H](C)OC)n4CC)CC(C)(C)COC(=O)[C@@H]3CCCN(N3)C2=O)C(C)C)C1`, the IC50 entry in test [4] is “in the range around 5.5 µM; also recorded: in the range around 550 nM”.

As to `C=CC(=O)N1CC(OCC(C(=O)N[C@H]2Cc3cc(cc(C(F)F)c3)-c3ccc4c(c3)c(c(-c3cccnc3C(C)OC)n4CC(F)(F)F)CC(C)(C)COC(=O)[C@@H]3CCCN(N3)C2=O)C(C)C)C1` (stereo not given in full), the IC50 in test [1], in test [3], in test [5], in test [6] and in test [7] was more than 10 µM throughout.

As for `C=CC(=O)N1CC(OCC(C(=O)N[C@H]2Cc3cc(cc(C(F)F)c3)-c3ccc4c(c3)c(c(-c3cccnc3C(C)OC)n4CC)CC(C)(C)COC(=O)[C@@H]3CCCN(N3)C2=O)C(C)C)C1` (stereo not given in full), the IC50 in test [1], in test [3], in test [5], in test [6] and in test [7] was more than 10 µM in each case.

Consider `CCn1c(-c2cccnc2C(C)OC)c2c3cc(ccc31)-c1cccc(c1)C[C@H](NC(=O)[C@H](C(C)C)N(C)C(=O)[C@H]1CCN(C(=O)C#CC3CCO3)C1)C(=O)N1CCC[C@H](N1)C(=O)OCC(C)(C)C2` (stereo not given in full), for which the half-maximal inhibitory concentration (IC50) entry in test [1] is “in the range around 5.5 µM”; in test [3], “in the range around 5.5 µM”; in test [5], less than 0.01 µM; in test [6] it was “in the range around 5.5 µM”; in test [7], “in the range around 0.55 µM”.

Consider `CCn1c(-c2cccnc2C(C)OC)c2c3cc(ccc31)-c1cccc(c1)C[C@H](NC(=O)[C@H](C(C)C)N(C)C(=O)[C@H]1CCN(C(=O)/C=C/C(F)F)C1)C(=O)N1CCC[C@H](N1)C(=O)OCC(C)(C)C2` (stereo not given in full), for which the IC50 entry in test [1] was “in the range around 5.5 µM”; in test [3], “in the range around 5.5 µM”; in test [5], “in the range around 0.055 µM”; in test [6] it was “in the range around 5.5 µM”; in test [7] it was “in the range around 0.55 µM”.
